In ChEMBL document CHEMBL3872219, “Computational and synthetic approaches for developing Lavendustin B derivatives as allosteric inhibitors of HIV-1 integrase” (Eur J Med Chem, 2016):
pIC50: −log10 of the molar value. Activity calls are given as the source filed them. No cut-off for these calls is given here.

Assays:
[1] = Inhibition of His-tagged LEDGF/p75 (unknown origin) dependent FLAG or His-tagged HIV1 integrase activity expressed in Escherichia coli BL21(DE3) using 32-mer blunt-ended U5 viral donor DNA and pBR322 target DNA preincubated for 5 mins followed by LEDGF/p75 addition measured after 90 mins by agarose gel electrophoresis
[2] = Inhibition of FLAG or His-tagged HIV1 integrase 3' processing activity expressed in Escherichia coli BL21(DE3) using [32P]-labeled blunt ended 21-mer or recessed ended 19-mer double stranded U5 DNA as substrate preincubated for 30 mins followed by substrate addition measured after 1 hr by polyacrylamide gel electrophoresis; set-up: species or system Human immunodeficiency virus 1
[3] = Inhibition of HIV1 His-tagged integrase/His-tagged LEDGF/p75 (unknown origin) interaction expressed in Escherichia coli BL21(DE3) preincubated for 30 mins with viral integrase followed by LEDGF/p75 addition measured after 30 mins by HTRF assay
[4] = tested on: Human immunodeficiency virus 1; experiment: Antiviral activity against VSV-g pseudotyped HIV1 infected in HEK293T cells incubated for 2 hrs prior to viral infection followed by compound wash out at 2 hrs post infection and subsequent compound readdition measured after 48 hrs by luciferase reporter gene assay; assay type: functional, cell-based; settings: HEK-293T
[5] = Cytotoxicity against HEK293T cells assessed as reduction in cell viability; assay type: toxicity, cell-based; settings: human, hek-293t

O=C(O)c1cc(N(Cc2cccc(F)c2)Cc2cccc(F)c2)ccc1O
pIC50 [1]: 4.73 | pIC50 [2]: 4.16 | pIC50 [3]: 4.68

O=C(O)c1cc(N(Cc2ccccc2)Cc2ccccc2)ccc1O
pIC50 [1]: 5.10 | pIC50 [2]: 4.16 | pIC50 [3]: 5.06

O=C(O)c1cc(N(Cc2cccc(Cl)c2)Cc2cccc(Cl)c2)ccc1O
pIC50 [1]: 4.87 | pIC50 [2]: < 4.15 | pIC50 [3]: 4.71

Cc1ccccc1CN(Cc1ccccc1C)c1ccc(O)c(C(=O)O)c1
pIC50 [1]: 4.83 | pIC50 [2]: < 4.15 | pIC50 [3]: 4.56

O=C(O)c1cc(N(Cc2ccccc2Cl)Cc2ccccc2Cl)ccc1O
Activity [4]: Active | pIC50 [1]: 5.42 | Activity [5]: Toxic | pIC50 [2]: 4.59 | pIC50 [3]: 5.48

O=C(O)c1cc(N(Cc2ccccc2F)Cc2ccccc2F)ccc1O
pIC50 [1]: 5.05 | pIC50 [2]: 4.20 | pIC50 [3]: 4.75
